Reference: patent US11987648B2, “Cyclohexapeptides as selective somatostatin SST5 receptor agonists” (Heptares Therapeutics Limited, priority 2018, dated 2024)
Where two headings read alike, the source gives them in different places. *1 amine or outer side, *2 acyl side, *3 side chain or, on linkers, in order; H or OH if unused. Where a SMILES comes first, the peptide text is derived from it. Side-chain parts run from the residue outwards. [ ]: non-standard residue; d: D form. The star is where a group is joined. Ala(piperidin-4-yl) = O=C([C@H](CC1CCN([*:3])CC1)N[*:1])[*:2]; dTrp(5-OMe) = COc1ccc2[nH]cc(C[C@@H](N)C(=O)O)c2c1; dTrp(4-Me) = Cc1cccc2[nH]cc(C[C@@H](N)C(=O)O)c12; dTrp(5-Me) = Cc1ccc2[nH]cc(C[C@@H](N)C(=O)O)c2c1; Phe(3-Br) = N[C@@H](Cc1cccc(Br)c1)C(=O)O; Phe(3-Cl) = N[C@@H](Cc1cccc(Cl)c1)C(=O)O; Phe(3-OMe) = COc1cccc(C[C@H](N)C(=O)O)c1; Phe(4-Cl) = N[C@@H](Cc1ccc(Cl)cc1)C(=O)O; Ethylenediamine = C(CN[*:2])N[*:1]; Hyp = O=C(O)[C@@H]1C[C@@H](O)CN1; hPhe = N[C@@H](CCc1ccccc1)C(=O)O; 3Pal = N[C@@H](Cc1cccnc1)C(=O)O; Benzyl(4-Cl) = Clc1ccc(C*)cc1; Phg = N[C@H](C(=O)O)c1ccccc1; CO = O=C([*:1])[*:2]; Bn = c1ccc(C*)cc1

Key:
SST5 = SST5 (Homo sapiens, UniProt P35346); experiment: Hit Hunter cAMP XS+ assay, SST5 activation via Gi (reduction of forskolin-stimulated cAMP); assay type: cell-based; conditions: for Emax: read-out: SST5 (EMax); for SST5/2 Selectivity: selectivity for SST5 over SST2
SST5, sequence (P35346 whole entry): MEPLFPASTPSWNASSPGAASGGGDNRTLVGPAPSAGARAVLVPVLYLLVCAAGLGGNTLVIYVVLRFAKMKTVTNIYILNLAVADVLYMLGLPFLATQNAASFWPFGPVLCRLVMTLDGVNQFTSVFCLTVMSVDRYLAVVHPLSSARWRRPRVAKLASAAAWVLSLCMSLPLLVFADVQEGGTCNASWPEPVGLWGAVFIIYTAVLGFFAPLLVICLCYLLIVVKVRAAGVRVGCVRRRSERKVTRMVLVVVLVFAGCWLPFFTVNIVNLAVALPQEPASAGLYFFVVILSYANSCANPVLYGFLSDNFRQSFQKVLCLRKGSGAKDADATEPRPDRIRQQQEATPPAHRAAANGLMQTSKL
Method: (§1) A Hit Hunter® cAMP XS+ assay was used to monitor activation of the SST2 and SST5 via the Gi G protein. Cells were pre-stimulated with forskolin to elicit a cAMP response and the potency and efficacy of somatostatin agonists to reduce cAMP was measured. Briefly cells (10,000 cells/well) were incubated (37° C.; 30 min) with compound ([…]) in media (2:1 HBSS/11 mM Hepes: cAMP XS+Ab reagent) in the presence of EC80 forskolin ([…] and 15 μM SST5). Signal was detected through incubation with 20 μL cAMP XS+ED/CL lysis cocktail ([…]; RT) followed by incubation with […] cAMP XS+EA reagent (180 min; RT). Microplates were read with a PerkinElmer Envision™ instrument for chemiluminescent signal detection.

SST2 = SST2 (Homo sapiens, UniProt P30874); experiment: Hit Hunter cAMP XS+ assay, SST2 activation via Gi (reduction of forskolin-stimulated cAMP); assay type: cell-based; conditions: for Emax: read-out: SST2 (EMax)
SST2, sequence (P30874 whole entry): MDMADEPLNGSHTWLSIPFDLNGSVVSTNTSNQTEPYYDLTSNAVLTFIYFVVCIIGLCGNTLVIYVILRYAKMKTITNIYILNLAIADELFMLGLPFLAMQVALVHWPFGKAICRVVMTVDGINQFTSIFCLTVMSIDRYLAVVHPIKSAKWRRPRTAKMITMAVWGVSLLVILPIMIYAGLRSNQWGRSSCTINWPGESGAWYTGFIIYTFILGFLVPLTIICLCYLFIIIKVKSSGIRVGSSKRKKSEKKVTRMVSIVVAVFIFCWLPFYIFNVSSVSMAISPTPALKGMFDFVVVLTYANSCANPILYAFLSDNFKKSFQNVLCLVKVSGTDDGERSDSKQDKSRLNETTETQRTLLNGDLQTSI
Method: as §1

[1] = reduction of forskolin-stimulated cAMP, 4-parameter logistic fit, read-out: SST5 pEC50 (converted)
[2] = reduction of forskolin-stimulated cAMP, 4-parameter logistic fit, read-out: SST2 pEC50 (converted)

Emax (SST5) [%] | SST5/2 Selectivity (SST5) | Emax (SST2) [%] | EC50 (SST5; [1]) [nM] | EC50 (SST2; [2]) [nM] | SMILES | EC50 (SST5) [nM] | EC50 (SST2) [nM]
98.7 | 33.8 | 97.6 | 10 | 316 | COc1ccc2[nH]cc(C[C@H]3NC(=O)[C@H](c4ccccc4)NC(=O)[C@@H]4C[C@@H](OC(=O)NCCN)CN4C(=O)[C@H](Cc4ccccc4)NC(=O)[C@H](Cc4ccc(OCc5ccccc5)cc4)NC(=O)[C@H](CC4CCNCC4)NC3=O)c2c1 [Example 5] (cyclo(F[Hyp]([CO-Ethylenediamine])[Phg][dTrp(5-OMe)][Ala(piperidin-4-yl)]Y(Bn))) | – | –
97.9 | 41.9 | 97.9 | 1.26 | 50.1 | NCCNC(=O)O[C@@H]1C[C@H]2C(=O)N[C@@H](c3ccccc3)C(=O)N[C@H](Cc3c[nH]c4ccccc34)C(=O)N[C@@H](CC3CCNCC3)C(=O)N[C@@H](Cc3ccc(OCc4ccc(Cl)cc4)cc3)C(=O)N[C@@H](Cc3ccccc3)C(=O)N2C1 [Example 6] (cyclo(F[Hyp]([CO-Ethylenediamine])[Phg][dW][Ala(piperidin-4-yl)]Y(Benzyl(4-Cl)))) | – | –
102 | 19.3 | 99.2 | 0.501 | 10 | NCCNC(=O)O[C@@H]1C[C@H]2C(=O)N[C@@H](c3ccccc3)C(=O)N[C@H](Cc3c[nH]c4ccccc34)C(=O)N[C@@H](CC3CCNCC3)C(=O)N[C@@H](Cc3ccc(OCc4ccccc4)cc3)C(=O)N[C@@H](Cc3cccc(Cl)c3)C(=O)N2C1 [Example 7] (cyclo([Hyp]([CO-Ethylenediamine])[Phg][dW][Ala(piperidin-4-yl)]Y(Bn)[Phe(3-Cl)])) | – | –
102 | 22.7 | 101 | 1.26 | 31.6 | NCCNC(=O)O[C@@H]1C[C@H]2C(=O)N[C@@H](c3ccccc3)C(=O)N[C@H](Cc3c[nH]c4ccccc34)C(=O)N[C@@H](CC3CCNCC3)C(=O)N[C@@H](Cc3ccc(OCc4ccccc4)cc3)C(=O)N[C@@H](Cc3ccc(Cl)cc3)C(=O)N2C1 [Example 8] (cyclo([Hyp]([CO-Ethylenediamine])[Phg][dW][Ala(piperidin-4-yl)]Y(Bn)[Phe(4-Cl)])) | – | –
106 | 23.3 | 102 | 2.51 | 50.1 | COc1ccc(C[C@@H]2NC(=O)[C@H](Cc3ccc(OCc4ccccc4)cc3)NC(=O)[C@H](CC3CCNCC3)NC(=O)[C@@H](Cc3c[nH]c4ccccc34)NC(=O)[C@H](c3ccccc3)NC(=O)[C@@H]3C[C@@H](OC(=O)NCCN)CN3C2=O)cc1 [Example 9] (cyclo([Hyp]([CO-Ethylenediamine])[Phg][dW][Ala(piperidin-4-yl)]Y(Bn)Y(Me))) | – | –
98 | 38.9 | 101 | 0.501 | 20 | NCCNC(=O)O[C@@H]1C[C@H]2C(=O)N[C@@H](c3ccccc3)C(=O)N[C@H](Cc3c[nH]c4ccccc34)C(=O)N[C@@H](CC3CCNCC3)C(=O)N[C@@H](Cc3ccc(OCc4ccccc4)cc3)C(=O)N[C@@H](Cc3cccc(Br)c3)C(=O)N2C1 [Example 10] (cyclo([Hyp]([CO-Ethylenediamine])[Phg][dW][Ala(piperidin-4-yl)]Y(Bn)[Phe(3-Br)])) | – | –
99.4 | 48.2 | 98 | 3.98 | 200 | NCCNC(=O)O[C@@H]1C[C@H]2C(=O)N[C@@H](c3ccccc3)C(=O)N[C@H](Cc3c[nH]c4ccccc34)C(=O)N[C@@H](CC3CCNCC3)C(=O)N[C@@H](Cc3ccc(OCc4ccccc4)cc3)C(=O)N[C@@H](Cc3cccnc3)C(=O)N2C1 [Example 11] (cyclo([3Pal][Hyp]([CO-Ethylenediamine])[Phg][dW][Ala(piperidin-4-yl)]Y(Bn))) | – | –
98.1 | 26.1 | 97.6 | 0.794 | 20 | COc1cccc(C[C@@H]2NC(=O)[C@H](Cc3ccc(OCc4ccccc4)cc3)NC(=O)[C@H](CC3CCNCC3)NC(=O)[C@@H](Cc3c[nH]c4ccccc34)NC(=O)[C@H](c3ccccc3)NC(=O)[C@@H]3C[C@@H](OC(=O)NCCN)CN3C2=O)c1 [Example 12] (cyclo([Hyp]([CO-Ethylenediamine])[Phg][dW][Ala(piperidin-4-yl)]Y(Bn)[Phe(3-OMe)])) | – | –
98.7 | 87.2 | 97.6 | 2.51 | 200 | Cc1ccc2[nH]cc(C[C@H]3NC(=O)[C@H](c4ccccc4)NC(=O)[C@@H]4C[C@@H](OC(=O)NCCN)CN4C(=O)[C@H](Cc4ccccc4)NC(=O)[C@H](Cc4ccc(OCc5ccccc5)cc4)NC(=O)[C@H](CC4CCNCC4)NC3=O)c2c1 [Example 13] (cyclo(F[Hyp]([CO-Ethylenediamine])[Phg][dTrp(5-Me)][Ala(piperidin-4-yl)]Y(Bn))) | – | –
– | – | 98.5 | – | – | C[C@@H](O)[C@@H]1NC(=O)[C@H](CCCCN)NC(=O)[C@@H](Cc2c[nH]c3ccccc23)NC(=O)[C@H](Cc2ccccc2)NC(=O)[C@@H](NC(=O)[C@H](N)Cc2ccccc2)CSSC[C@@H](C(=O)N[C@H](CO)[C@@H](C)O)NC1=O [Octreotide] | – | –

SMILES | Emax (SST5) [%] | SST5/2 Selectivity (SST5) | Emax (SST2) [%] | EC50 (SST5; [1]) [nM] | EC50 (SST2; [2]) [nM] | EC50 (SST5) [nM] | EC50 (SST2) [nM]
NCCNC(=O)O[C@@H]1C[C@H]2C(=O)N[C@@H](c3ccccc3)C(=O)N[C@H](Cc3c[nH]c4ccccc34)C(=O)N[C@@H](CC3CCNCC3)C(=O)N[C@@H](Cc3ccc(OCc4ccccc4)cc3)C(=O)N[C@@H](Cc3ccccc3)C(=O)N2C1 [Example 1] (cyclo(F[Hyp]([CO-Ethylenediamine])[Phg][dW][Ala(piperidin-4-yl)]Y(Bn))) | 98.6 | 130.7 | 62 | – | – | 25.1 | 3160
NCCNC(=O)O[C@@H]1C[C@H]2C(=O)N[C@@H](Cc3ccccc3)C(=O)N[C@H](Cc3c[nH]c4ccccc34)C(=O)N[C@@H](CC3CCNCC3)C(=O)N[C@@H](Cc3ccc(OCc4ccccc4)cc3)C(=O)N[C@@H](Cc3ccccc3)C(=O)N2C1 [Example 2] (cyclo(F[Hyp]([CO-Ethylenediamine])F[dW][Ala(piperidin-4-yl)]Y(Bn))) | 105 | 21.9 | 96.4 | – | – | 20 | 398
NCCNC(=O)O[C@@H]1C[C@H]2C(=O)N[C@@H](CCc3ccccc3)C(=O)N[C@H](Cc3c[nH]c4ccccc34)C(=O)N[C@@H](CC3CCNCC3)C(=O)N[C@@H](Cc3ccc(OCc4ccccc4)cc3)C(=O)N[C@@H](Cc3cccnc3)C(=O)N2C1 [Example 3] (cyclo([3Pal][Hyp]([CO-Ethylenediamine])[hPhe][dW][Ala(piperidin-4-yl)]Y(Bn))) | 100 | 236.7 | 98.4 | – | – | 0.794 | 200
Cc1cccc2[nH]cc(C[C@H]3NC(=O)[C@H](c4ccccc4)NC(=O)[C@@H]4C[C@@H](OC(=O)NCCN)CN4C(=O)[C@H](Cc4ccccc4)NC(=O)[C@H](Cc4ccc(OCc5ccccc5)cc4)NC(=O)[C@H](CC4CCNCC4)NC3=O)c12 [Example 4] (cyclo(F[Hyp]([CO-Ethylenediamine])[Phg][dTrp(4-Me)][Ala(piperidin-4-yl)]Y(Bn))) | 105 | 23.6 | 103 | – | – | 12.6 | 251
